Data on one compound can be found in patent publication US9481669B2, “Pladienolide pyridine compounds and methods of use” (Eisai R&D Management Co., Ltd., priority 2014, dated 2016).

Each structure is given as a SMILES string.

Assay [1] concerns alternative splicing in Nalm-6 isogenic cells. Description: Alternative splicing modulation (nCounter Nanostring analysis). Format: cell-based, human. To be noted: 10×GI50 for 6 hours. The method, then: The “+” and “−” indicate positive or negative values, respectively, in the shade key, which indicates the varying levels of expression of the different splice junctions.
The modulation of alternative splicing for E7107 and Compound 2 was determined using the nCounter® analysis system (NanoString Techologies, Inc., Seattle, Wash.). Nalm-6 isogenic cells were treated with Compound 2 or E7107 (obtained from Eisai, Inc.) at 10×GI50 for 6 hours. RNA was isolated using RiboPure™ RNA purification kit (Ambion®) and used for analysis. The RNA was retrotranscribed according to the instructions of the SuperScript® VILO™ cDNA synthesis kit (Invitrogen™) and 0.04 μl of cDNA was used for qPCR.

Assay [2] concerns Panc 05.04 cancer cells (SF3B1^MUT) vs BXPC3, HPAFII, PANC0403, PANC1005, CFPAC1 and MIAPACA2. Description: Cellular viability assay, mutant vs wild-type SF3B1 pancreatic cancer cell lines. The assay is classed as cell-based. To be noted: 72 hours at 37° C., 384-well plate. The method, then: To assess the viability of Panc 05.04 cancer cells (SF3B1^MUT) (Q699H and K700E mutations in SF3B1) in the presence of Compound 2, cells were seeded at 750 cells per well in a 384-well plate and treated with Compound 2 at the concentrations indicated in FIG. 4 for 72 hours at 37° C. The relative number of viable or apoptotic cells were measured by luminescence using CELLTITER-GLO® luminescent Cell Viability Assay (Promega).

As for `C/C(=C\C=C\[C@@H](C)c1ccccn1)[C@H]1OC(=O)C[C@H](O)CC[C@@](C)(O)[C@@H](OC(=O)N2CCN(C)CC2)/C=C/[C@@H]1C` [Compound 2, (2S,3 S,6S,7R,10R,E)-7,10-dihydroxy-3,7-dimethyl-12-oxo-2-((R,2E,4E)-6-(pyridin-2-yl)hepta-2,4-dien-2-yl)oxacyclododec-4-en-6-yl 4-methylpiperazine-1-carboxylate], the splicing modulation profile entry in assay [1] is recorded as “distinct from the profile of E7107”. Also, in assay [2], the “differential cellular lethality, mutant vs wild-type SF3B1 pancreatic cancer cell lines” value was “differential cellular lethality in the mutant SF3B1 pancreatic cancer cell line over wild-type SF3B1 pancreatic cancer cell lines”.
